According to US20230212523A1, “CULTURE MEDIUM FOR LARYNGEAL CANCER EPITHELIAL CELLS, CULTURE METHOD, AND APPLICATION THEREOF” (CAS (Hefei) Institute of Technology Innovation, priority 2020, published 2023):

B1: fibroblast growth factor 7: growth factor from Sino Biological (protein, UniProt P21781 32-194, looked up)
Fibroblast growth factor 7: CNDMTPEQMATNVNCSSPERHTRSYDYMEGGDIRVRRLFCRTQWYLRIDKRGKVKGTQEMKNNYNIMEIRTVAVGIVAIKGVESEFYLAMNKEGKLYAKKECNEDCNFKELILENHYNTYASAKWTHNGGEMFVALNQKGIPVRGKKTKKEQKTAHFLPMAIT

System: primary laryngeal cancer cells (No. 0S0064)
Assay: Effects of different factors added to basic medium BM on proliferation of primary laryngeal cancer cells (cell count)
Type: cell-based, human
Settings: factor added to BM, in specific concentration ranges; 10 days of culture on irradiated NIH-3T3; FIGS. 1A-1F
Experimental: The cultured NIH-3T3 cells (purchased from ATCC, and cultured in DMEM culture solution containing 10% fetal bovine serum) were digested with 0.25% trypsin (purchased from Thermo Fisher), and the digestion was terminated by using DMEM culture solution (purchased from Corning) containing 5%(v/v) fetal bovine serum (purchased from ExCell Biotech Co., Ltd.), 100 U/mL penicillin and 100 μg/mL streptomycin; the resultant was collected into a 15 mL centrifuge tube and centrifuged at 1500 rpm for 4 minutes, and then the supernatant was discarded. The centrifuged cell sediments were resuspended in the above DMEM culture solution containing 10% fetal bovine serum and were counted with a flow imaging counter (JIMBIO FIL, Jiangsu Jimbio Technology Co., Ltd.). The cells were irradiated with γ-ray of 35 Gy irradiation dose, and then were inoculated in a culture vessel at a density of 2×10^4 cells/cm^2. The cells were incubated in a 37° C. incubator until the cells adhere to the wall. Before the inoculation of primary cells, the culture medium was removed from the culture vessel.
Preparation of basic medium (abbreviated as BM): BM was prepared by adding 0.2 vol. % of Primocin (purchased from Invivogen, with a concentration of 50 mg/mL) to the commercial DMEM/F-12 medium to provide a final concentration of 100 μg/mL.
Next, different kinds and concentrations of additive factors (Table 3) were added to the basic medium (BM), so as to prepare culture mediums for laryngeal cancer epithelial cells containing different additive components.
The culture mediums with different components were added at a volume of 500 μl/well to 48-well plates which were pre-laid with γ-ray irradiated NIH-3T3 cells. Laryngeal cancer cells (No. 0S0064) isolated from laryngeal cancer tissue according to the same method as described in Example 1 were inoculated at a cell count of 4×10^4cells/well in the above-mentioned 48-well culture plates which were pre-laid with γ-ray irradiated NIH-3T3 cells. After surface disinfection, the plates were placed in a 37° C., 5% CO2 incubator (purchased from Thermo Fisher), such that equal numbers of freshly isolated laryngeal cancer cells (No. 0S0064) were cultured under different medium formulations. The culture mediums were replaced and the trophoblastic cells were supplemented every 4 days. after the start of culture. After 10 days of culture, cell counts were performed. The basic medium (BM) without addition of any additive was used as the experimental control.
As shown in the figures, adding different concentrations of different factors according to Table 3 to BM would result in different effects on cell proliferation.

Row | Molecule | effect on cell proliferation (ratio of cell number to that in basic medium BM)
1 | CN1C(=O)C(c2c(F)cccc2F)N(C)c2nc(Nc3ccc(S(N)(=O)=O)cc3)ncc21 (stereo not drawn) [Compound 1, 4-((7-(2,6-difluorophenyl)-5,8-dimethyl-6-oxo-5,6,7,8-tetrahydropteridin-2-yl)amino)benzsulfamide] | certain promoting effects on cell proliferation
2 | Cc1cccc(-c2nn(C(=S)Nc3ccccc3)cc2-c2ccnc3ccccc23)n1 [Compound A83-C1, A83-C1, reference compound] | certain promoting effects on cell proliferation
3 | C[C@@H](N)[C@H]1CC[C@H](C(=O)Nc2ccncc2)CC1 [Compound Y27632, Y27632, reference compound] | certain promoting effects on cell proliferation
4 | hepatocyte growth factor: growth factor from Sino Biological | certain promoting effects on cell proliferation
5 | insulin-like growth factor 1: growth factor from Sino Biological | certain promoting effects on cell proliferation
6 | B1 | certain promoting effects on cell proliferation
